Assay results published in publication PMC2752324 (Bioorganic & medicinal chemistry letters, 2008).

Target: T1, tissue-nonspecific alkaline phosphatase (TNAP) (Homo sapiens, UniProt P05186)
T1 sequence (P05186 18-502 limits assumed): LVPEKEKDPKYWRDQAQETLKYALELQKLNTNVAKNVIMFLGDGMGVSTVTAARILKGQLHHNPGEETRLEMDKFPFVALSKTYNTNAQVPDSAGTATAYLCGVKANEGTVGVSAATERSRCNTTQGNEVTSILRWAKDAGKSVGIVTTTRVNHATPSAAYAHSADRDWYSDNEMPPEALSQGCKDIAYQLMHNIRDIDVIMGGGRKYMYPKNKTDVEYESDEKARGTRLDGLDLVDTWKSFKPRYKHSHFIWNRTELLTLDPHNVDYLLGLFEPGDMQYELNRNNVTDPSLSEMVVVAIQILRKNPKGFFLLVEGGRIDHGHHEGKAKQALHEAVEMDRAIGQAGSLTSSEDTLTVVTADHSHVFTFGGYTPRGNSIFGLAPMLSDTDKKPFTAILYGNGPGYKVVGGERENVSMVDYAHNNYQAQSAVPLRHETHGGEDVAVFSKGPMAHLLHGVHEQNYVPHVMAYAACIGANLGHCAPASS
Assay: TNAP luminescence-based inhibition assay
Type: biochemical

| improvement in potency (4 versus tricyclic derivative 3) [fold] | selectivity for TNAP (versus PLAP and GAPDH) | times more potent against TNAP (versus screening hit 1) | SMILES |
| --- | --- | --- | --- |
| 3 | – | – | O=C(c1[nH]nc2c1COc1ccccc1-2)N1CCCC1 [Compound 4] |
| – | at least 2000 fold | approximately 200 times | O=C(NCCO)c1cc(-c2ccc(Cl)c(Cl)c2Cl)n[nH]1 [Compound 9v] |
